From PubChem BioAssay AID1745844 (Carcinogenic Potency Database (CPDB), 2022) come the findings set out here.

Calls of active or inactive are those of the source. No rule for the calls is given here.

The data set has as its system rodent lifetime carcinogenesis bioassay, tumor incidence TD50. Nature of the data set: carcinogenic potency in animals, long-term in vivo studies, CPDB compilation (AID 1745844).

The TD50 is the dose at which the toxic effect under study appears in half of the subjects.

For `CN(C)N=O`, the TD50 runs as follows: (mouse, strain A, males, in drinking water, site: lung, lesion: alveolar-cell adenoma, dosed 72 weeks, study length 72 weeks) 0.177 mg/kg/day; (mouse, strain BALB/c, females, in drinking water, site: any site (literature study), lesion: several types, types named in the paper, dosed 85 weeks, study length 85 weeks) 0.396 mg/kg/day; (mouse, strain BALB/c, females, in drinking water, site: lung, lesion: adenoma, dosed 85 weeks, study length 85 weeks) 0.324 mg/kg/day; (mouse, strain C57BL, females, by gavage, site: any site (literature study), lesion: several types, types named in the paper, dosed 50 weeks, study length 72 weeks) 0.0964 mg/kg/day; (mouse, strain C57BL, females, by gavage, site: forebrain, lesion: olfactory neuroepithelioma, dosed 50 weeks, study length 72 weeks) 0.153 mg/kg/day; (mouse, strain C57BL, females, by gavage, site: liver, lesion: benign tumor, dosed 50 weeks, study length 72 weeks) 0.35 mg/kg/day. Moreover, the TD50 (mouse, strain C57BL, females, by gavage, site: liver, lesion: malignant tumor, dosed 50 weeks, study length 72 weeks) is 0.429 mg/kg/day; the TD50 (mouse, strain C57BL, males, by gavage, site: any site (literature study), lesion: several types, types named in the paper, dosed 50 weeks, study length 72 weeks) was 0.06 mg/kg/day; the TD50 (mouse, strain C57BL, males, by gavage, site: forebrain, lesion: olfactory neuroepithelioma, dosed 50 weeks, study length 72 weeks) was 0.161 mg/kg/day; the TD50 (mouse, strain C57BL, males, by gavage, site: liver, lesion: benign tumor, dosed 50 weeks, study length 72 weeks) is 0.508 mg/kg/day; the TD50 (mouse, strain C57BL, males, by gavage, site: liver, lesion: malignant tumor, dosed 50 weeks, study length 72 weeks) is 0.179 mg/kg/day; the TD50 (mouse, strain C57BL, males, by gavage, site: lung, lesion: adenoma, dosed 50 weeks, study length 72 weeks) was found to be 21.1 mg/kg/day. Also, the TD50 (rat, strain Buffalo, males, in feed, site: liver, lesion: hepatocellular carcinoma, dosed 26 weeks, study length 52 weeks) is 1.76 mg/kg/day; the TD50 (rat, strain Colworth (Wistar derived), females, in drinking water, site: liver, lesion: hepatocellular carcinoma, dosed 176 weeks, study length 176 weeks) is 0.237 mg/kg/day; the TD50 (rat, strain Colworth (Wistar derived), females, in drinking water, site: liver, lesion: hepatocellular tumor, dosed 176 weeks, study length 176 weeks) was 0.145 mg/kg/day; the TD50 (rat, strain Colworth (Wistar derived), females, in drinking water, site: liver, lesion: intrahepatic bile duct tumor, benign, dosed 176 weeks, study length 176 weeks) is 0.0763 mg/kg/day; the TD50 (rat, strain Colworth (Wistar derived), females, in drinking water, site: liver, lesion: intrahepatic bile duct tumor, dosed 176 weeks, study length 176 weeks) was 0.0752 mg/kg/day; the TD50 (rat, strain Colworth (Wistar derived), females, in drinking water, site: liver, lesion: mesenchymal hemangio-sarcoma, -pericytoma, or -endothelioma, malignant, dosed 176 weeks, study length 176 weeks) is 0.914 mg/kg/day. Also, the TD50 is 0.0424 mg/kg/day (rat, strain Colworth (Wistar derived), females, in drinking water, site: liver, lesion: neoplasm of liver cell, bile duct, mesenchyme, Kupffer cell, or unknown, dosed 176 weeks, study length 176 weeks); 0.218 mg/kg/day (rat, strain Colworth (Wistar derived), males, in drinking water, site: liver, lesion: hepatocellular carcinoma, dosed 176 weeks, study length 176 weeks); 0.157 mg/kg/day (rat, strain Colworth (Wistar derived), males, in drinking water, site: liver, lesion: hepatocellular tumor, dosed 176 weeks, study length 176 weeks); 0.313 mg/kg/day (rat, strain Colworth (Wistar derived), males, in drinking water, site: liver, lesion: intrahepatic bile duct tumor, benign, dosed 176 weeks, study length 176 weeks); 23.6 mg/kg/day (rat, strain Colworth (Wistar derived), males, in drinking water, site: liver, lesion: intrahepatic bile duct tumor, malignant, dosed 176 weeks, study length 176 weeks); 0.308 mg/kg/day (rat, strain Colworth (Wistar derived), males, in drinking water, site: liver, lesion: intrahepatic bile duct tumor, dosed 176 weeks, study length 176 weeks). In addition, the TD50 runs as follows: (rat, strain Colworth (Wistar derived), males, in drinking water, site: liver, lesion: mesenchymal hemangio-sarcoma, -pericytoma, or -endothelioma, malignant, dosed 176 weeks, study length 176 weeks) 0.712 mg/kg/day; (rat, strain Colworth (Wistar derived), males, in drinking water, site: liver, lesion: neoplasm of liver cell, bile duct, mesenchyme, Kupffer cell, or unknown, dosed 176 weeks, study length 176 weeks) 0.0867 mg/kg/day; (rat, strain Colworth (Wistar derived), males, in drinking water, site: lung, lesion: several types, types named in the paper, dosed 176 weeks, study length 176 weeks) 1.64 mg/kg/day; (rat, strain Fischer 344, females, in drinking water, site: liver, lesion: hemangiosarcoma, dosed 30 weeks, study length 110 weeks) 0.438 mg/kg/day; (rat, strain Fischer 344, females, in drinking water, site: liver, lesion: hepatocellular carcinoma, dosed 30 weeks, study length 110 weeks) 0.135 mg/kg/day; (rat, strain Fischer 344, females, in drinking water, site: liver, lesion: several types, types named in the paper, dosed 30 weeks, study length 110 weeks) 0.0587 mg/kg/day. For the same compound, the TD50 (rat, strain Fischer 344, males, by gavage, site: kidney, lesion: mesenchymal neoplasm, dosed 30 weeks, study length 65 weeks) is 0.189 mg/kg/day; the TD50 (rat, strain Fischer 344, males, by gavage, site: liver, lesion: cholangiocellular tumor, benign, dosed 30 weeks, study length 65 weeks) was 0.822 mg/kg/day; the TD50 (rat, strain Fischer 344, males, by gavage, site: liver, lesion: hemangiosarcoma, dosed 30 weeks, study length 65 weeks) turned out to be 0.822 mg/kg/day; the TD50 (rat, strain Fischer 344, males, by gavage, site: liver, lesion: hepatocellular tumor, benign, dosed 30 weeks, study length 65 weeks) stood at 0.372 mg/kg/day; the TD50 (rat, strain Fischer 344, males, by gavage, site: liver, lesion: several types, types named in the paper, dosed 30 weeks, study length 65 weeks) was 0.189 mg/kg/day; the TD50 (rat, strain Fischer 344, males, by gavage, site: lung, lesion: alveolar/bronchiolar adenoma, dosed 30 weeks, study length 65 weeks) is 0.106 mg/kg/day. In addition, the TD50 by setting is: (rat, strain Fischer 344, males, by gavage, site: lung, lesion: several types, types named in the paper, dosed 30 weeks, study length 65 weeks) 0.0765 mg/kg/day; (rat, strain Fischer 344, males, by gavage, site: lung, lesion: squamous-cell carcinoma, dosed 30 weeks, study length 65 weeks) 0.372 mg/kg/day; (rat, strain MRC Porton (Wistar derived), females, in feed, site: liver, lesion: one or several types, types not named, dosed 52 weeks, study length 120 weeks) 0.443 mg/kg/day; (rat, strain MRC Porton (Wistar derived), females, in feed, site: liver, lesion: one or several types, types not named, dosed 108 weeks, study length 120 weeks) 1.4 mg/kg/day; (rat, strain MRC Porton (Wistar derived), males, in feed, site: liver, lesion: one or several types, types not named, dosed 120 weeks, study length 120 weeks) 1.18 mg/kg/day; (rat, strain Wistar, females, in feed, site: all sites, lesion: leukemia, dosed 96 weeks, study length 96 weeks) 1.46 mg/kg/day. Also, the TD50 (rat, strain Wistar, females, in feed, site: liver, lesion: hemangioendothelioma, dosed 96 weeks, study length 96 weeks) was 1.83 mg/kg/day; the TD50 (rat, strain Wistar, females, in feed, site: liver, lesion: hepatocellular carcinoma, dosed 96 weeks, study length 96 weeks) was 4.1 mg/kg/day; the TD50 (rat, strain Wistar, females, in feed, site: liver, lesion: nodular hyperplasia, dosed 96 weeks, study length 96 weeks) is 0.113 mg/kg/day; the TD50 (rat, strain Wistar, males, in feed, site: liver, lesion: hemangioendothelioma, dosed 96 weeks, study length 96 weeks) was 1.95 mg/kg/day; the TD50 (rat, strain Wistar, males, in feed, site: liver, lesion: hepatocellular carcinoma, dosed 96 weeks, study length 96 weeks) was 5.52 mg/kg/day; the TD50 (rat, strain Wistar, males, in feed, site: liver, lesion: nodular hyperplasia, dosed 96 weeks, study length 96 weeks) was 0.782 mg/kg/day. Also, the TD50 (rat, strain Wistar, males, in feed, site: testis, lesion: Leydig-cell tumor, dosed 54 weeks, study length 69 weeks) is 0.136 mg/kg/day. Besides, the carcinogen call (rat, strain Wistar, males, in feed, site: liver, lesion: carcinoma, dosed 54 weeks, study length 69 weeks) is “negative (inactive)”.

In the case of `C#CC1(O)CC[C@H]2[C@@H]3CCC4=CCCC[C@@H]4[C@H]3CC[C@@]21C` (stereo partly specified), the TD50 (dog, strain Beagle, females, in feed, site: mammary gland, lesion: carcinoma, dosed 364 weeks, study length 364 weeks) is 0.58 mg/kg/day.

Turning to `Oc1ccccc1`, the carcinogen call is, setting by setting: (mouse, strain B6C3F1, females, in drinking water, site: any site (literature study), lesion: several types, types named in the paper, dosed 103 weeks, study length 104 weeks) “negative (inactive)”; (mouse, strain B6C3F1, males, in drinking water, site: any site (literature study), lesion: several types, types named in the paper, dosed 103 weeks, study length 104 weeks) “negative (inactive)”; (rat, strain Fischer 344, females, in drinking water, site: any site (literature study), lesion: several types, types named in the paper, dosed 103 weeks, study length 104 weeks) “negative (inactive)”. Also, the TD50 (mouse, strain B6C3F1, females, in drinking water, site: lung, lesion: alveolar/bronchiolar adenoma + alveolar/bronchiolar carcinoma, dosed 103 weeks, study length 104 weeks) is 18500 mg/kg/day; the TD50 (mouse, strain B6C3F1, males, in drinking water, site: liver, lesion: hepatocellular adenoma + hepatocellular carcinoma + neoplastic nodule, dosed 103 weeks, study length 104 weeks) was found to be 2450 mg/kg/day; the TD50 (mouse, strain B6C3F1, males, in drinking water, site: lung, lesion: alveolar/bronchiolar adenoma + alveolar/bronchiolar carcinoma, dosed 103 weeks, study length 104 weeks) is 8290 mg/kg/day; the TD50 (rat, strain Fischer 344, males, in drinking water, site: all sites, lesion: leukemia + lymphoma, dosed 103 weeks, study length 104 weeks) is 133 mg/kg/day; the TD50 (rat, strain Fischer 344, males, in drinking water, site: all sites, lesion: leukemia, dosed 103 weeks, study length 104 weeks) was 143 mg/kg/day; the TD50 (rat, strain Fischer 344, males, in drinking water, site: all sites, lesion: monocytic leukemia, dosed 103 weeks, study length 104 weeks) amounted to 143 mg/kg/day. For the same compound, for the setting “rat, strain Fischer 344, males, in drinking water, site: thyroid gland, lesion: c-cell carcinoma, dosed 103 weeks, study length 104 weeks”, the TD50 is 420 mg/kg/day (inactive).

Take `C=C1C[C@@]23CC[C@H]4[C@@](C)(CCC[C@@]4(C)C(=O)O[C@@H]4O[C@H](CO)[C@@H](O)[C@H](O)[C@H]4O)[C@@H]2CC[C@]1(O[C@@H]1O[C@H](CO)[C@@H](O)[C@H](O)[C@H]1O[C@@H]1O[C@H](CO)[C@@H](O)[C@H](O)[C@H]1O)C3`: the TD50 by setting is: (rat, strain F344/DuCrj, females, in feed, site: any site (literature study), lesion: several types, types named in the paper, dosed 104 weeks, study length 108 weeks) 34400 mg/kg/day (inactive); (rat, strain F344/DuCrj, males, in feed, site: liver, lesion: hepatocellular carcinoma, dosed 104 weeks, study length 108 weeks) 101000 mg/kg/day (inactive). Also, the carcinogen call is “negative (inactive)” (rat, strain F344/DuCrj, females, in feed, site: liver, lesion: one or several types, types not named, dosed 104 weeks, study length 108 weeks); “negative (inactive)” (rat, strain F344/DuCrj, males, in feed, site: any site (literature study), lesion: several types, types named in the paper, dosed 104 weeks, study length 108 weeks); “negative (inactive)” (rat, strain F344/DuCrj, males, in feed, site: liver, lesion: hepatocellular adenoma, dosed 104 weeks, study length 108 weeks).
